This note sets out measurements from ChEMBL document CHEMBL5331141.

The source made the active and inactive calls. The calls are words filed in the database; no cut-off is given here.

This assay deals with HEK293. Description: Effect on HEK293 cells lacking human mu opioid receptor assessed as inhibition of cAMP accumulation at 1 uM. It is filed as functional, cell-based.

As to `C=CCN1CC[C@]23c4c5ccc(O)c4O[C@H]2C(=O)CC[C@@]3(O)[C@H]1C5`, the result was inactive. For `C=C(C)[C@@H]1CCC(C)=C[C@H]1c1c(O)cc(CCC)cc1O` the value was “inactive”; for `C=C(C)[C@@H]1CCC(C)=C[C@H]1c1c(O)cc(CCCCC)cc1O`, “inactive”.
